Laboratory results as given in patent publication US6653311B1, “5-lipoxygenase inhibitors: (2-azinylamino) quinone derivatives” (Board of Supervisors of Louisiana State University, priority 2002, dated 2003).
Blank lines part the entries; values can stand above or below the compound they belong to.

How the values were obtained:
5-lipoxygenase (5-LO) = target: T1, 5-lipoxygenase (5-LO) (Oryctolagus cuniculus, UniProt G1SNX0); assay: Radioisotopic assay of 5-LO activity (LTB4 formation from 14C-arachidonic acid) in rabbit peritoneal PMNL stimulated with A-23187; type: cell-based; details: for inhibition at 1 µM: rabbit peritoneal neutrophils (PMNL), mean ± s.d. of three experiments in duplicate, read-out: % Inhibition (percent inhibition of LTB4 formation); for in vitro 5-LO activity in words: peritoneal PMNL
T1 construct: Polymorphonuclear leukocytes (PMNLs) were purified from rabbits by glycogen-intraperitoneal elicited intraperitoneal recruitment; endogenous in cells; host or cells: rabbit peritoneal polymorphonuclear leukocytes (PMNL), glycogen-elicited
T1 sequence (G1SNX0 1-674): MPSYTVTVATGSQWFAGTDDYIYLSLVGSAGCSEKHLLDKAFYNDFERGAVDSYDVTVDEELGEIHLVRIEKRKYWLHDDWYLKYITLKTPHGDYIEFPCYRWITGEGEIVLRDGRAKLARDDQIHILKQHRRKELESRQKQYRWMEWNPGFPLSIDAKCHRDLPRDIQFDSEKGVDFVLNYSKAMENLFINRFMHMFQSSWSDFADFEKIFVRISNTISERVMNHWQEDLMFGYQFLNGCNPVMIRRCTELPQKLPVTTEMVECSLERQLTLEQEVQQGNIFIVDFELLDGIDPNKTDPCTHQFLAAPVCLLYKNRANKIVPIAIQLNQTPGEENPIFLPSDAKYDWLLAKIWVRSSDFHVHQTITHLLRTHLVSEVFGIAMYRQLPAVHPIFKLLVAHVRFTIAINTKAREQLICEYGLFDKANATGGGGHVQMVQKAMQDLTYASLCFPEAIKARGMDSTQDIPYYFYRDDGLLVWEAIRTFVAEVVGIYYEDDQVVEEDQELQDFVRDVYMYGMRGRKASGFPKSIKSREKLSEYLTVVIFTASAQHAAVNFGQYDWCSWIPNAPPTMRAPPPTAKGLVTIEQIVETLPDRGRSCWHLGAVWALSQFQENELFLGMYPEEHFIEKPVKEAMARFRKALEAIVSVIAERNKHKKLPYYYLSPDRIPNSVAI
From the text: The 5-LO enzyme, which is found primarily in cells of myeloid origin such as polymorphonuclear leukocytes (“PMNL”), eosinophils, and macrophages, catalyzes the first step of the biochemical pathway in which arachadonic acid (“AA”) is,converted into LTA4. […] To test the inhibition of the quinone derivatives on the activity of 5-LO rabbit polymorphonuclear leucocytes (PMNLs) were used.
Polymorphonuclear leukocytes (PMNLs) were purified from rabbits by glycogen-intraperitoneal elicited intraperitoneal recruitment, as descrited in T. Yatabe et al., “Studies on 5-lipoxygenase inhibitors: I. Synthesis and 5-lipoxygenase inhibitory activity of novel hydroxanic acid derivatives,” chem. Pharm. Bull., vol. 46, pp. 966-972 (1998). An intraperitoneal injection of 300 mL of 0.1% (w/v) glycogen in sterile saline was administered 6 h before the rabbits were sacrificed by an intravascular injection of Nembutal. Peritoneal exudates were collected in 5 μM EGTA, and residual red cells were removed by lysis in ammonium chloride. These cell preparations were obtained with greater than 96% purity, as assessed by Wright-Giemsa staining and greater than 95% viability as assessed by Trypan blue exclusion.
PMNL cells in suspension were pre-incubated for 20 min at room temperature with ^14C-labeled arachadonic acid (AA) and diluted to 3000 cells μL^−1. Thereafter, the calcium ionophore A-23187 (1 μg/mL) was added to stimulate LTB4 production, and the cells further incubated for 15 min under stirring at 37° C. After incubation, the aqueous samples were successively shaken with a mixture of chloroform/methanol/formic acid (12:12:1) for 30 sec and then with chloroform for 10 sec. Organic phases containing LTB4, 5-HPETE (5-hydroperoxyeicosatetraenoic acid), diHPETEs (dihydroperoxyeicosatetraenoic acids), and prostaglandins (PGs) were pooled, evaporated to dryness under nitrogen and dissolved into a small amount of chloroform-MeOH (1:1). Separation of the 5-LO metabolites was performed by thin layer chromatography (TLC) on silica gel G plates developed in diethyl ether-hexane-acetic acid (60:40:1, v/v/v).
Bands containing 5-lipoxygenase (5-LO) metabolites were scraped from the TLC plates, and ^14C levels were quantitatively measured by liquid scintillation. 5-LO activity was an obtained from the amount of ^14C-arachidonic acid converted into LTB4 after the prelabeled PMNL cells were stimulated to produce LTB4 by the calcium ionophore as described above. IC50 was calculated as the concentration of the 5-LO antagonist that produced 50% inhibition of the metabolite conversion.
[…] IC50 values, calculated as theconcentration of test compound required to cause 50% inhibition of LTB4 formation, were also determined for some representative examples. […] These compounds, in general, correspond to compounds bearing the more lipophilic quinone fragments. […] See S. Ohkawa et al., “Dual Inhibition of Thromboxane A2 Synthetase and 5-Lipoxygenase with Scavenging Activity of Active Oxygen Species. Synthesis of a Novel Series of (3-Pyridylmethyl)benzoquinone Derivatives,” J. Med. Chem., vol. 34, pp. 267-276 (1991).

5-LO = target: T2, 5-LO (Rattus norvegicus, UniProt P12527); assay: 5-LO inhibition by radioimmunoassay (RIA) in rat peritoneal PMNL; details: inhibitors at 'AM final concentration' [sic], mean ± SD
T2 sequence (P12527 1-673): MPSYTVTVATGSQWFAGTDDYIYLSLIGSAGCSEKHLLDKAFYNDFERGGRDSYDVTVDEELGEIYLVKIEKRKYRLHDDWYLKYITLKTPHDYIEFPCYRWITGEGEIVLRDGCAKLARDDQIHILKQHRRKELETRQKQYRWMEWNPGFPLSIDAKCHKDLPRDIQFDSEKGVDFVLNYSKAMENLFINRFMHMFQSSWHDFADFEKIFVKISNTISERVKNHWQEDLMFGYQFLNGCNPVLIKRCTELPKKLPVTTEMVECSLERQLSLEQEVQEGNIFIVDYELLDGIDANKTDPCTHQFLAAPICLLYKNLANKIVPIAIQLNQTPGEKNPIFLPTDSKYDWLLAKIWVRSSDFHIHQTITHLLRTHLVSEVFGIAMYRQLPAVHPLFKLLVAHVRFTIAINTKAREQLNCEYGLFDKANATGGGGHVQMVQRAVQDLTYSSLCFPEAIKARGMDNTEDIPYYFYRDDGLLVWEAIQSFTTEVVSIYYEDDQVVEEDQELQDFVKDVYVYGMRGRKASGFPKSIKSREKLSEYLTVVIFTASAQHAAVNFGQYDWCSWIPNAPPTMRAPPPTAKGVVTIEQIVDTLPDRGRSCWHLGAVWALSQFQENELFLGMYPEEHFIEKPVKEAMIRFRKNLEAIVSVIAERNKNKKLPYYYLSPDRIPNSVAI
From the text: (§1) Percent inhibition mean values ±SD from at least three individual determinations are shown.

[1] = test system: arachidonic acid-induced ear inflammation in mice; assay: Arachidonic acid-induced ear inflammation in mice (AAE test); type: in vivo; details: mice, topical
COX-1 = COX-1 (Homo sapiens, UniProt P23219); assay: In vitro inhibition of COX-1 activity; details: read-out: COX-1 percent inhibition
Sequence of COX-1 (P23219 24-599): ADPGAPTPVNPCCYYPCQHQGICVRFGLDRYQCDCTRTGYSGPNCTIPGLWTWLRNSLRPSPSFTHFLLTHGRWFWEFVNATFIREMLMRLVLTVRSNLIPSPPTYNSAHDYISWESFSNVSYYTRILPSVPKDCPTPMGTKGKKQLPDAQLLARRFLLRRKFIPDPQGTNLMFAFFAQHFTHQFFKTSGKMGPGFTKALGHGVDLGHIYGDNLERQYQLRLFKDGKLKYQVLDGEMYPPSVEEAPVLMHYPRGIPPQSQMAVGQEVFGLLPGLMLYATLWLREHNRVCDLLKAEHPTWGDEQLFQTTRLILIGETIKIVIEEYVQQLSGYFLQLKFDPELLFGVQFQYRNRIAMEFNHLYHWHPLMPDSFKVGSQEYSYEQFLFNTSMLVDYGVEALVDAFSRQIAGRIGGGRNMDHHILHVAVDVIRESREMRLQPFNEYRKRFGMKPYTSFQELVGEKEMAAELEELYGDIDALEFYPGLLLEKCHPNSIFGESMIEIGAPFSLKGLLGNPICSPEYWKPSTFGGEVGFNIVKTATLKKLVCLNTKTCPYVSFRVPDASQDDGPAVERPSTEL
From the text: as §1

[2] = Mus musculus, 250 μg/ear, read-out: % inhibition of AA-induced ear inflammation

SMILES: COC1=C(OC)C(=O)C(Nc2ncccn2)=C(C)C1=O [Compound 4q, 2,3-Dimethoxy-5-methyl-6-(pyrimidin-2-ylamino)-[1.4]benzoquinone]
melting point: 132 to 134 °C

SMILES: CC(Cc1ccc(O)c(O)c1)C(C)Cc1ccc(O)c(O)c1 (stereo not shown) [NDGA, reference compound]
5-LO percent inhibition (5-LO): 92.0 ± 4.2%

SMILES: CC(C)c1ccc2c(c1)c(SC(C)(C)C)c(CC(C)(C)C(=O)O)n2Cc1ccc(Cl)cc1 [MK-886, 3-[3-t-Butylthio-l-(p-chlorobenzyl)-5-isopropylindol-2-yl]-2,2-dimethylpropionic acid, reference compound]
% inhibition of AA-induced ear inflammation ([1]; 250 μg/ear): −25.7 ± 8.1%

SMILES: COC1=C(OC)C(=O)C(Nc2ccc(Cl)cn2)=C(C)C1=O [Compound 4g, 2-(5-Chloropyridin-2-ylamino)-5,6-dimethoxy-3-methyl-[1,4]benzoquinone]
melting point: 106 to 108 °C

SMILES: CC(=O)Oc1ccccc1C(=O)O [Aspirin, reference compound]
inhibition at 500 µM (COX-1): 83.1 ± 2%

SMILES: O=C1C=C(Nc2nccc(-c3ccccc3)n2)C(=O)c2ccccc21 [Compound 4u, 2-(4-Phenylpyrimidin-2-ylamino)-[1,4]naphthoquinone]
melting point: 229 to 230 °C

SMILES: CC1=CC(=O)C(Nc2cnccn2)=CC1=O [Compound 4x, 2-Methyl-5-(pyrazin-2-ylamino)-[1,4]benzoquinone]
in vitro 5-LO activity in words (5-lipoxygenase (5-LO)): inactive
melting point: 134 to 136 °C

SMILES: COC1=C(OC)C(=O)C(Nc2ccc(Br)cn2)=C(C)C1=O [Compound 4h, 2-(5-Bromopyridin-2-ylamino)-5,6-dimethoxy-3-methyl-[1,4]benzoquinone]
melting point: 99 to 100 °C

SMILES: O=C1C=C(Nc2ncc(Cl)cc2Cl)C(=O)c2ccccc21 [Compound 4n, 2-(3,5-Dichloropyridin-2-ylamino)-[1,4]naphthoquinone]
melting point: 249 to 250 °C

SMILES: COc1ccc2c(c1)c(CC(=O)O)c(C)n2C(=O)c1ccc(Cl)cc1 [Indometacin, reference compound]
change in vivo at 250 µg/ear [1, 2]: -26.6 ± 7.3%

More lines, main results first:

melting point: 245 to 246 °C
SMILES: O=C1C=C(Nc2ccc(I)cn2)C(=O)c2ccccc21 [Compound 4m, 2-(5-Iodopyridin-2-ylamino)-[1,4]naphthoquinone]

melting point: 102 to 104 °C
SMILES: O=C1C=CC(=O)C(Nc2ccccn2)=C1 [Compound 4a]

inhibition at 1 µM (5-lipoxygenase (5-LO)): 64 ± 4.3%
melting point: 165 to 167 °C
SMILES: O=C1C=C(Nc2ccccn2)C(=O)C(c2ccccc2)=C1 [Compound 4f, 2-Phenyl-6-(pyridin-2-ylamino)-[1,4]benzoquinone]

in vitro 5-LO activity in words (5-lipoxygenase (5-LO)): inactive
SMILES: CC1=CC(=O)C=C(Nc2cnccn2)C1=O [Compound 4v, 2-Methyl-6-(pyrazin-2-ylamino)-[1,4]benzoquinone]

inhibition at 1 µM (5-lipoxygenase (5-LO)): 86 ± 2.3%
melting point: 162 to 164 °C
SMILES: CC1=CC(=O)C=C(Nc2ccccn2)C1=O [Compound 4b, 2-Methyl-6-(pyridin-2-ylamino)-[1,4]benzoquinone]

inhibition at 1 µM (5-lipoxygenase (5-LO)): 24 ± 3.7%
in vitro 5-LO activity in words (5-lipoxygenase (5-LO)): significant inhibition of 5-LO
melting point: 251 to 252 °C
SMILES: O=C1C=C(Nc2ccc(Cl)cn2)C(=O)c2ccccc21 [Compound 4k, 2-(5-Choropyridin-2-ylamino)-[1,4]naphthoquinone]

melting point: 130 to 132 °C
SMILES: CC1=C(Nc2ccccn2)C(=O)c2ccccc2C1=O [Compound 4j, 2-Methyl-3-(pyridin-2-ylamino)-[1,4]naphthoquinone]

activation (LTB4 formation) (5-lipoxygenase (5-LO); at 0.1 μM, PMNL): ^d180% activation at 0.1 μM.
in vitro 5-LO activity in words (5-lipoxygenase (5-LO)): agonist activity
melting point: 245 to 247 °C
SMILES: O=C1C=C(Nc2cnccn2)C(=O)c2ccccc21 [Compound 4y, 2-(Pyrazin-2-ylamino)-[i, 4]naphthoquinone]

inhibition at 1 µM (5-lipoxygenase (5-LO)): 56 ± 3.1%
melting point: 167 to 169 °C
SMILES: CC1=CC(=O)C=C(Nc2ncccn2)C1=O [Compound 4o, 2-Methyl-6-(pyrimidin-2-ylamino)-[l 4]benzoquinone]

inhibition at 1 µM (5-lipoxygenase (5-LO)): 88 ± 5.2%
SMILES: CC1=C(C)C(=O)C(Nc2ccccn2)=CC1=O [Compound 4d, 2,3-Dimethyl-5-(pyridin-2-ylamino)-[1,4]benzoquinone]
change in vivo at 50 µg/ear ([1]; Mus musculus, 50 μg/ear, read-out: % inhibition of AA-induced ear inflammation): -18.3 ± 3.3%
change in vivo at 100 µg/ear ([1]; Mus musculus, 100 μg/ear, read-out: % inhibition of AA-induced ear inflammation): -27.8 ± 3.6%
change in vivo at 250 µg/ear [1, 2]: -35.9 ± 7.4%
